Literature values, collected in paper PMC8025584, “Identification of multipotent drugs for COVID-19 therapeutics with the evaluation of their SARS-CoV2 inhibitory activity” (Computational and Structural Biotechnology Journal, 2021).
Where a name gives a salt, the structure may show the parent alone. Read-outs that look alike come from different tables or passages of the source.

Test system: differentially expressed human proteins in COVID-19
Details: cited from earlier work
[1] = gene HCK, drug-gene interaction listed in DGIdb export, ref DGIdb
[2] = gene CACNA1A, drug-gene interaction listed in DGIdb export, ref DGIdb

## COc1cc2nc(N3CCN(C(=O)C4COc5ccccc5O4)CC3)nc(N)c2cc1OC (centres unmarked) [DOXAZOSIN]
Gene KCNH7, ref DGIdb
  interaction_types: inhibitor

## C[C@H]1c2cccc(O)c2C(=O)C2=C(O)[C@]3(O)C(=O)C(C(N)=O)=C(O)[C@@H](N(C)C)[C@@H]3[C@@H](O)[C@@H]21 [DOXYCYCLINE]
Gene MMP8, ref DGIdb
  interaction_types: inhibitor

## CCCCc1oc2ccc(NS(C)(=O)=O)cc2c1C(=O)c1ccc(OCCCN(CCCC)CCCC)cc1 [DRONEDARONE HYDROCHLORIDE]
Gene KCNJ2, ref DGIdb
  interaction_types: blocker

## CC/C(=C(\c1ccc(O)cc1)c1ccc(OCCNC)cc1)c1ccccc1 [ENDOXIFEN]
Gene CYP19A1, ref DGIdb
  interaction_types: inhibitor

## Cn1cc(C2=C(c3cn(C)c4cc([N+](=O)[O-])ccc34)C(=O)NC2=O)c2ccccc21 [ENMD-981693]
Gene FGR, ref DGIdb
  interaction_types: inhibitor
[1]
  interaction_types: inhibitor

## CNC[C@H](O)c1ccc(O)c(O)c1 [EPINEPHRINE]
  interaction_types: agonist¦antagonist

## C=C1C[C@@H]2CC[C@@]34C[C@H]5O[C@H]6[C@@H](O3)[C@H]3O[C@H](CC[C@@H]3O[C@H]6[C@H]5O4)CC(=O)C[C@@H]3[C@@H](OC)[C@@H](C[C@H](O)CN)O[C@H]3C[C@H]3O[C@@H](CC[C@@H]1O2)C[C@@H](C)C3=C [ERIBULIN MESYLATE]
Gene TUBA4A, ref DGIdb
  interaction_types: inhibitor

## CCCCCC/C=C\CCCCCCCCCC(=O)N[C@H]1[C@H](OC[C@H]2O[C@H](OP(=O)(O)O)[C@H](NC(=O)CC(=O)CCCCCCCCCCC)[C@@H](OCCCCCCCCCC)[C@@H]2O)O[C@H](COC)[C@@H](OP(=O)(O)O)[C@@H]1OCC[C@@H](CCCCCCC)OC [ERITORAN TETRASODIUM]
Gene LY96, ref DGIdb
  interaction_types: antagonist

## C#CC1(OC(N)=O)CCCCC1 [ETHINAMATE]
  interaction_types: inhibitor

## CCOc1ccc2nc(S(N)(=O)=O)sc2c1 [ETHOXZOLAMIDE]
Gene CA1, ref DGIdb
  interaction_types: inhibitor

## CC(O)(P(=O)(O)O)P(=O)(O)O [ETIDRONIC ACID]
Gene SLC25A4, ref DGIdb
  interaction_types: inhibitor

## CCOC(=O)/C=C(C)/C=C/C=C(C)/C=C/c1c(C)cc(OC)c(C)c1C [ETRETINATE]
Gene RXRB, ref DGIdb
  interaction_types: agonist

## N#Cc1ccc(C2CCCc3cncn32)cc1 (centres unmarked) [FADROZOLE]
  interaction_types: inhibitor

## CCOc1ccc(-c2ccc(Cn3c(CC(C)(C)C(=O)O)c(SC(C)(C)C)c4cc(OCc5ccc(C)cn5)ccc43)cc2)cn1 [FIBOFLAPON]
Gene ALOX5AP, ref DGIdb
  interaction_types: inhibitor

## COc1cc(Nc2ncc(F)c(Nc3ccc4c(n3)N(COP(=O)(O)O)C(=O)C(C)(C)O4)n2)cc(OC)c1OC [FOSTAMATINIB, reference compound]
Gene EIF2AK2, ref DGIdb
  interaction_types: inhibitor
Gene FGR, ref DGIdb
  interaction_types: inhibitor
Gene GAK, drug-gene interaction listed in DGIdb export, ref DGIdb
  interaction_types: inhibitor
[1]
  interaction_types: inhibitor
Gene PTK2B, ref DGIdb
  interaction_types: inhibitor
Gene TAOK3, ref DGIdb
  interaction_types: inhibitor

## COc1ccc(/C=C\c2cc(OC)c(OC)c(OC)c2)cc1OP(=O)(O)O [FOS[…]]
Gene TUBA4A, ref DGIdb
  interaction_types: inhibitor

## CC(OC(=O)NCC1(CC(=O)O)CCCCC1)OC(=O)C(C)C (centres unmarked) [GABAPENTIN ENACARBIL, reference compound]
[2]
  interaction_types: modulator

## NCC1(CC(=O)O)CCCCC1 [GABAPENTIN, reference compound]
[2]
  interaction_types: modulator

## C[C@]1(C(=O)N(CCCC(=O)O)Cc2cccc(Cl)c2)CCN1C(=O)c1csc2ccccc12 [GLPG-0974]
Gene FFAR2, ref DGIdb
  interaction_types: antagonist

## O=c1nc(OC[C@@H]2COCCO2)cc2n1CCc1cc(C#CC3CC3)ccc1-2 [GLPG-1205]
Gene GPR84, ref DGIdb
  interaction_types: antagonist

## N[C@@H](CCC(=O)N[C@@H](CS)C(=O)NCC(=O)O)C(=O)O [GLUTATHIONE]
  interaction_types: cofactor

## Cl.N=C(N)N [GUANIDINE HYDROCHLORIDE]
Gene KCNH7, ref DGIdb
  interaction_types: blocker

## Nc1nc2nc[nH]c2c(=O)[nH]1 [GUANINE]
Gene GCH1, ref DGIdb
  interaction_types: inhibitor

## CCS(=O)(=O)Nc1ccc2c(c1)/C(=C(/Nc1ccc(CN3CCCCC3)cc1)c1ccccc1)C(=O)N2 [HESPERADIN]
[1]
  interaction_types: inhibitor
Gene PTK2B, ref DGIdb
  interaction_types: inhibitor

## NCCc1c[nH]cn1 [HISTAMINE]
  interaction_types: activator

## N[C@@H](Cc1c[nH]cn1)C(=O)O [HISTIDINE]
Gene CA1, ref DGIdb
  interaction_types: activator

## NS(=O)(=O)c1cc2c(cc1Cl)NCNS2(=O)=O [HYDROCHLOROTHIAZIDE, reference compound]
Gene CA1, ref DGIdb
  interaction_types: inhibitor

## NS(=O)(=O)c1cc2c(cc1C(F)(F)F)NCNS2(=O)=O [HYDROFLUMETHIAZIDE]
Gene CA1, ref DGIdb
  interaction_types: inhibitor

## C=CC(=O)N1CCC[C@@H](n2nc(-c3ccc(Oc4ccccc4)cc3)c3c(N)ncnc32)C1 [IBRUTINIB]
[1]
  interaction_types: inhibitor

## CCCCCCCN(CC)CCCC(O)c1ccc(NS(C)(=O)=O)cc1 (centres unmarked) [IBUTILIDE, reference compound]
Gene KCNH7, ref DGIdb
  interaction_types: inhibitor

## Nc1ncc(-c2cnn(CCO)c2)c2scc(-c3ccc(NC(=O)Nc4cccc(F)c4)cc3)c12 [ILORASERTIB]
Gene FGR, ref DGIdb
  interaction_types: inhibitor
[1]
  interaction_types: inhibitor

## CCC[C@@H](C)C[C@H](N)CC(=O)O [IMAGABALIN]
[2]
  interaction_types: modulator

## Nc1cc(-c2ccncc2)c[nH]c1=O [INAMRINONE]
Gene TNF, drug-gene interaction listed in DGIdb export, ref DGIdb
  interaction_types: inhibitor

## O=C(Nc1ccncc1)C(=O)c1cn(Cc2ccc(Cl)cc2)c2ccccc12 [INDIBULIN]
Gene TUBA4A, ref DGIdb
  interaction_types: inhibitor

## O=C1Nc2ccccc2/C1=C1/Nc2ccccc2C1=O [INDIRUBIN]
  interaction_types: substrate

## CCc1c2c(nc3ccc(OC(=O)N4CCC(N5CCCCC5)CC4)cc13)-c1cc3c(c(=O)n1C2)COC(=O)[C@]3(O)CC [IRINOTECAN, reference compound]
Gene ISG15, ref DGIdb
  interaction_types: inhibitor

## CC(/C=C/[C@@H]1C[C@]1(C)c1ccc2c(c1)C(C)(C)CCC2(C)C)=C\C(=O)O [IRX-4204]
Gene RXRB, ref DGIdb
  interaction_types: agonist

## C/C(=C\c1csc(C)n1)[C@@H]1C[C@@H]2O[C@]2(C)CCC[C@H](C)[C@H](O)[C@@H](C)C(=O)C(C)(C)[C@@H](O)CC(=O)N1 [IXABEPILONE]
Gene TUBA4A, ref DGIdb
  interaction_types: inhibitor

## Cc1oncc1C(=O)Nc1ccc(C(F)(F)F)cc1 [LEFLUNOMIDE]
Gene PTK2B, ref DGIdb
  interaction_types: antagonist

## N#Cc1ccc(C(c2ccc(C#N)cc2)n2cncn2)cc1 [LETROZOLE]
Gene CYP19A1, ref DGIdb
  interaction_types: antagonist¦inhibitor

## CCC[C@H](Nc1nc(-c2ccc(NC(=O)NCC)c(OC)c2)ncc1C)c1cccnc1 [LEXIBULIN]
Gene TUBA4A, ref DGIdb
  interaction_types: inhibitor

## CN(C)C(=O)C(CCN1CCC(O)(c2ccc(Cl)cc2)CC1)(c1ccccc1)c1ccccc1 [LOPERAMIDE]
[2]
  interaction_types: inhibitor

## CN(C)C(=N)N=C(N)N [METFORMIN]
Gene PRKAB1, ref DGIdb
  interaction_types: activator¦inducer

## CC(=O)/N=c1/sc(S(N)(=O)=O)nn1C [METHAZOLAMIDE]
Gene CA1, ref DGIdb
  interaction_types: inhibitor

## COc1ccccc1OCC(O)COC(N)=O (centres unmarked) [METHOCARBAMOL]
Gene CA1, ref DGIdb
  interaction_types: inhibitor

## CN1C(CCl)Nc2cc(Cl)c(S(N)(=O)=O)cc2S1(=O)=O (centres unmarked) [METHYCLOTHIAZIDE]
Gene CA1, ref DGIdb
  interaction_types: inhibitor

## C/C(=C\c1ccc(OCCN2CCOCC2)cc1)c1ccc2c(c1)C(C)(C)CCC2(C)C [MOFAROTENE]
Gene RXRB, ref DGIdb
  interaction_types: modulator

## CN1CC[C@]23c4c5ccc(O)c4O[C@H]2[C@@H](O)C=C[C@H]3[C@H]1C5 [MORPHINE]
  interaction_types: activator

## O=C1C[C@@H](c2ccc(O)cc2)Oc2cc(O)cc(O)c21 [NARINGENIN]
Gene CYP19A1, ref DGIdb
  interaction_types: inhibitor

## CCCc1c2oc(C(=O)O)cc(=O)c2cc2c(=O)cc(C(=O)O)n(CC)c12 [NEDOCROMIL, reference compound]
Gene FPR1, ref DGIdb
  interaction_types: antagonist

## CN1CCC[C@H]1c1cccnc1 [NICOTINE]
  interaction_types: inhibitor
